Experiment in all cases: KINOMEscan
Common to all, as to assay type: binding
What all share (details): read-out: % control activity remaining

Assay [1] has as its target T1, ABL1(Q252H)-nonphosphorylated (Homo sapiens, UniProt P00519, Q252H).
T1 construct: purchased Eurofins DiscoverX KINOMEscan

A further assay concerns the target T2, SBK1 (Homo sapiens, UniProt Q52WX2).
T2 construct: purchased Eurofins DiscoverX KINOMEscan

A further assay has as its target T3, HIPK2 (Homo sapiens, UniProt Q9H2X6).
T3 construct: purchased Eurofins DiscoverX KINOMEscan

The target in the next assay is T4, ICK (Homo sapiens, UniProt Q9UPZ9).
T4 construct: purchased Eurofins DiscoverX KINOMEscan
T4 sequence (Q9UPZ9 1-632): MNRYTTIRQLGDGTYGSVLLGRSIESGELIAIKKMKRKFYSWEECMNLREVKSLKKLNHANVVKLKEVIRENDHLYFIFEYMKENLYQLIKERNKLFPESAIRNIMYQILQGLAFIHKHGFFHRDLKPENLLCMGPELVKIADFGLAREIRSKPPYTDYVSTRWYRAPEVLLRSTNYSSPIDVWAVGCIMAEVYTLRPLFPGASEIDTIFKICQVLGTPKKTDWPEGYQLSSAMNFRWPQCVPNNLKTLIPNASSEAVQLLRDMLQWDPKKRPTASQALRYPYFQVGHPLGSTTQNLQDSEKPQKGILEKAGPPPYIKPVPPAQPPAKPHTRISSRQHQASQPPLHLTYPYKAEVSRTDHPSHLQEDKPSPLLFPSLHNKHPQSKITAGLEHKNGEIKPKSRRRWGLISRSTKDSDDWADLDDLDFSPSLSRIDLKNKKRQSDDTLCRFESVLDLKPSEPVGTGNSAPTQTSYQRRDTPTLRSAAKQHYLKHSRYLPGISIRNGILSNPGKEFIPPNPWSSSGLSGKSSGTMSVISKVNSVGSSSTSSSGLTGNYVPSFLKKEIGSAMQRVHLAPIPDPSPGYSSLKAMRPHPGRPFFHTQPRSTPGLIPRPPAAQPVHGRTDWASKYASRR

For the next assay, the target named is T5, INSR (Homo sapiens, UniProt P06213).
T5 construct: purchased Eurofins DiscoverX KINOMEscan

For the next assay, the target named is T6, EGFR(L861Q) (Homo sapiens, UniProt P00533, L861Q).
T6 construct: purchased Eurofins DiscoverX KINOMEscan

The target in another assay is T7, PKAC-beta (Homo sapiens, UniProt P22694).
T7 construct: purchased Eurofins DiscoverX KINOMEscan

The target of the next assay is T8, PRKCQ (Homo sapiens, UniProt Q04759).
T8 construct: purchased Eurofins DiscoverX KINOMEscan

In a further assay the target is T9, CLK1 (Homo sapiens, UniProt P49759).
T9 construct: purchased Eurofins DiscoverX KINOMEscan

Assay [2] addresses T10, ABL1(F317L)-nonphosphorylated (Homo sapiens, UniProt P00519, F317L).
T10 construct: purchased Eurofins DiscoverX KINOMEscan

The target of a further assay is T11, NDR1 (Homo sapiens, UniProt Q15208).
T11 construct: purchased Eurofins DiscoverX KINOMEscan
T11 sequence (Q15208 whole entry): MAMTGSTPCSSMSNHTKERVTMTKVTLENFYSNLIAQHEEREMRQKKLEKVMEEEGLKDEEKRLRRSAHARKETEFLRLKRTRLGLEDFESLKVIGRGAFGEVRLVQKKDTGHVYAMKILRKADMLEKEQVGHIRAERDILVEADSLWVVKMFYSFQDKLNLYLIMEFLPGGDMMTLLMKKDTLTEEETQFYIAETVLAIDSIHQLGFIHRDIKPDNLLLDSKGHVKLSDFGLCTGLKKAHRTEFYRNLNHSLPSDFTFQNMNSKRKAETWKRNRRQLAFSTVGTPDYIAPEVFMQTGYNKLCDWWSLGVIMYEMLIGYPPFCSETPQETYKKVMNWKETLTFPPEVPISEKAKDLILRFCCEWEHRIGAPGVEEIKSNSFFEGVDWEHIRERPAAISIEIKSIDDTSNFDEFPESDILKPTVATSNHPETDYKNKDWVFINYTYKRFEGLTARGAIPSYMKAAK

In a further assay the target is T12, PAK7 (Homo sapiens, UniProt Q9P286).
T12 construct: purchased Eurofins DiscoverX KINOMEscan

The target in another assay is T13, IGF1R (Homo sapiens, UniProt P08069).
T13 construct: purchased Eurofins DiscoverX KINOMEscan
T13 sequence (P08069 31-1367 limits assumed): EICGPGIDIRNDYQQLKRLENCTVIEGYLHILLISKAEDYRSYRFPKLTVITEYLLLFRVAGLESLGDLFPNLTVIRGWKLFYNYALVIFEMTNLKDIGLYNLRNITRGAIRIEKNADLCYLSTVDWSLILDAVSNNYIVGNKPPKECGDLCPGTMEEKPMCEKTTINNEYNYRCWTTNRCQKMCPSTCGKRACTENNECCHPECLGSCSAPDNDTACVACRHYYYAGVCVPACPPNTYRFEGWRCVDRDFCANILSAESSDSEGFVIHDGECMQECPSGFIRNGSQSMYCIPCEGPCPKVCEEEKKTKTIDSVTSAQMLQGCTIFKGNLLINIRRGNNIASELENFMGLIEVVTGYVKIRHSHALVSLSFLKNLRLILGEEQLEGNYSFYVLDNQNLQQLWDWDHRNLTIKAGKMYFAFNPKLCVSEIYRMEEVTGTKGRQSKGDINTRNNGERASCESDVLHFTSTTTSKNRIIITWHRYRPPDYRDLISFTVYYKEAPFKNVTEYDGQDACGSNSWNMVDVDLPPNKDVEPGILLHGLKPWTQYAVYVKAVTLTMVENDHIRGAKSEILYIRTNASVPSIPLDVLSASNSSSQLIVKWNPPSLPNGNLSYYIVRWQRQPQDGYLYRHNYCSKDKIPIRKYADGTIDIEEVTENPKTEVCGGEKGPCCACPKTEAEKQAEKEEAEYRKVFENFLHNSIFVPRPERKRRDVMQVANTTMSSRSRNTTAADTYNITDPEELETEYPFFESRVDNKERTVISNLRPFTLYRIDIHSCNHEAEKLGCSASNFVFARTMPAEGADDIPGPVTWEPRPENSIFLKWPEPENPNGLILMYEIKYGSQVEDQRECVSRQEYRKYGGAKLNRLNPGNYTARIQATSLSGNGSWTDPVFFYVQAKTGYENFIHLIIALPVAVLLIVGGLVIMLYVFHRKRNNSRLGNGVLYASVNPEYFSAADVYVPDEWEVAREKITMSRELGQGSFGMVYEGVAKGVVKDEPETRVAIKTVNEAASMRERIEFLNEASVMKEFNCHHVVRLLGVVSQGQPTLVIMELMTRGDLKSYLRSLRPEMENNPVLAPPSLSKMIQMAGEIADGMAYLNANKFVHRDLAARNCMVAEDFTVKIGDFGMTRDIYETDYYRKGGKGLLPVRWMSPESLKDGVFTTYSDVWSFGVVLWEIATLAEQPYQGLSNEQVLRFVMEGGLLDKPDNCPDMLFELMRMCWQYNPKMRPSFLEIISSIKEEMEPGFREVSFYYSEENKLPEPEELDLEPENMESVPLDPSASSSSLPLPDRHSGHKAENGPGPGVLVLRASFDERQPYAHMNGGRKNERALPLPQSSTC

In another assay the target is T14, NEK7 (Homo sapiens, UniProt Q8TDX7).
T14 construct: purchased Eurofins DiscoverX KINOMEscan
T14 sequence (Q8TDX7 whole entry): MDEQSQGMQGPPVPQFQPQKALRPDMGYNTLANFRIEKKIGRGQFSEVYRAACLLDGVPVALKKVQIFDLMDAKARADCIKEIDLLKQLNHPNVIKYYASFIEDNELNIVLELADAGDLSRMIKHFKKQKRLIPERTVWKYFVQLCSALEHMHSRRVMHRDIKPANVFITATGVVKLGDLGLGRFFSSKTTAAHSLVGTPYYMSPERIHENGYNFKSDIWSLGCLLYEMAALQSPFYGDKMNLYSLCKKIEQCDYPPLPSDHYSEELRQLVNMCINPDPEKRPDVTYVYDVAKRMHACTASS

In another assay the target is T15, STK35 (Homo sapiens, UniProt Q8TDR2).
T15 construct: purchased Eurofins DiscoverX KINOMEscan
T15 sequence (Q8TDR2 whole entry): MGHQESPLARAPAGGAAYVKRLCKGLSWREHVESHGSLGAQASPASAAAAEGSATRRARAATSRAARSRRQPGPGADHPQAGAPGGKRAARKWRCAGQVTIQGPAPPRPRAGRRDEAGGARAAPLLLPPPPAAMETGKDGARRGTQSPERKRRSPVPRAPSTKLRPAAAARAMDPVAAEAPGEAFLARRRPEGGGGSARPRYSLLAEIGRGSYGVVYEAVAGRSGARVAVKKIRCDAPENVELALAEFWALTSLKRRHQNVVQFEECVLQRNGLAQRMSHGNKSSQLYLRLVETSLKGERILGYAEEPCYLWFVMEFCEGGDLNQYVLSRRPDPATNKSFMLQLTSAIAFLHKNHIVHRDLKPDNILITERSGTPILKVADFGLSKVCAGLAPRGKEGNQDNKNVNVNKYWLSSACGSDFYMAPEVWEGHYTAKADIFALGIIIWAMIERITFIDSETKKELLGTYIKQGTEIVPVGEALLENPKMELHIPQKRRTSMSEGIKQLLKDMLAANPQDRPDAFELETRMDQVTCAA

In a further assay the target is T16, CDKL2 (Homo sapiens, UniProt Q92772).
T16 construct: purchased Eurofins DiscoverX KINOMEscan
T16 sequence (Q92772 1-493): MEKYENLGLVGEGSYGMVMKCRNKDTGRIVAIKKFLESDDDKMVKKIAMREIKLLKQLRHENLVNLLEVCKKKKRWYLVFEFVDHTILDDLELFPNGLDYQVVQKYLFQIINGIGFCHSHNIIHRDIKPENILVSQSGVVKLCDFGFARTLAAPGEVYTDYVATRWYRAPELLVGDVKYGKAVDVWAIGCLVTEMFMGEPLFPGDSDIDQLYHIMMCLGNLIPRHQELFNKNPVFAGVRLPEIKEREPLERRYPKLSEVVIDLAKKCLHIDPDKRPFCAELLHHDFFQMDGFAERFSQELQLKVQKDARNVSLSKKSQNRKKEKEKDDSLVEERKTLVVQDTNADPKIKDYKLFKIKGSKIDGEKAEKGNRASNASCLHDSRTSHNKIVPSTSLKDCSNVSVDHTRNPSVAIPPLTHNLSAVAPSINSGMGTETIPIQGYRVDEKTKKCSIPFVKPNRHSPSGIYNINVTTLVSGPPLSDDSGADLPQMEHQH

A further assay deals with T17, CSNK1A1 (Homo sapiens, UniProt P48729).
T17 construct: purchased Eurofins DiscoverX KINOMEscan
T17 sequence (P48729 whole entry): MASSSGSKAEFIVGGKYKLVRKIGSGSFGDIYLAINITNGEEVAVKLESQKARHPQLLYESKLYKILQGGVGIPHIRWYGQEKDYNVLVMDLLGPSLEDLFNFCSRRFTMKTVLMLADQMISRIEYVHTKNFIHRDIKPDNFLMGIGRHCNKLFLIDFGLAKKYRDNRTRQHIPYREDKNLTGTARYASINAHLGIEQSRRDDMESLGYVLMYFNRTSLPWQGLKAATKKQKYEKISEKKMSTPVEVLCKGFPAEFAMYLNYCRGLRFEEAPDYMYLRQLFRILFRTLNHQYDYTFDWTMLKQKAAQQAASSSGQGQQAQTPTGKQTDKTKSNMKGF

The target of the next assay is T18, AKT3 (Homo sapiens, UniProt Q9Y243).
T18 construct: purchased Eurofins DiscoverX KINOMEscan

Experimental findings from PMC6437697 (Journal of Medicinal Chemistry, 2019) are described below.

T3 sequence (Q9H2X6 whole entry): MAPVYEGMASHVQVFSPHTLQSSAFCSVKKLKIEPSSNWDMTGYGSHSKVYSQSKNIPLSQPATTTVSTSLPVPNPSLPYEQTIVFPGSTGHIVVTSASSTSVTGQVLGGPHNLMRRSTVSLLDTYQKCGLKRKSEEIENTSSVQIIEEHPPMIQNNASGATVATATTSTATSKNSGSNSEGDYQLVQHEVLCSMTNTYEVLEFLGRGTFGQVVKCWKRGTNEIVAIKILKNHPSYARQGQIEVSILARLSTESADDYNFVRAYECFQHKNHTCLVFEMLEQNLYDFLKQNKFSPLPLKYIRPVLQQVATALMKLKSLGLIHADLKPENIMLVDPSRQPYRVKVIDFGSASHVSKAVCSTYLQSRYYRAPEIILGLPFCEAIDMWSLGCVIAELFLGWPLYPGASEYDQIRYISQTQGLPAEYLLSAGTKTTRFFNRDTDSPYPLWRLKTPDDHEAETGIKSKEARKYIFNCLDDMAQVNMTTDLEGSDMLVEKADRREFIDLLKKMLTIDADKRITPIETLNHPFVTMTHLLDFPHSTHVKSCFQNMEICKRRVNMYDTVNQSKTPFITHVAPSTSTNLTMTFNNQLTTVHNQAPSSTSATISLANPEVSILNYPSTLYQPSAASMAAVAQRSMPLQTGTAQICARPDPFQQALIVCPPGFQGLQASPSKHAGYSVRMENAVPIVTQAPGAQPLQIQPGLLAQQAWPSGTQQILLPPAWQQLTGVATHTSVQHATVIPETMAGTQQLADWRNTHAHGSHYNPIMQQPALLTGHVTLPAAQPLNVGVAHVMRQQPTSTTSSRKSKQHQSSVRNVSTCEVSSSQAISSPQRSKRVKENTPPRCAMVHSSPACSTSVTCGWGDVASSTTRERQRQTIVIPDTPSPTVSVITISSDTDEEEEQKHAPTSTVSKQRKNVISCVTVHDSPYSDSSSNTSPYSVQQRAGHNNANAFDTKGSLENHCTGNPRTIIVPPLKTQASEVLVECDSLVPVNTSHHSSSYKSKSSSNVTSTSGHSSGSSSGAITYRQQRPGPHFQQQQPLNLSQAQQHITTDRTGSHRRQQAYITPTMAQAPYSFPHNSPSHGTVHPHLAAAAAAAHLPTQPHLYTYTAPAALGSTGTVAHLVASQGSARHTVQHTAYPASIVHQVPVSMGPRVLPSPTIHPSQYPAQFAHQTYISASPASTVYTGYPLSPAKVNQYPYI
T2 sequence (Q52WX2 whole entry): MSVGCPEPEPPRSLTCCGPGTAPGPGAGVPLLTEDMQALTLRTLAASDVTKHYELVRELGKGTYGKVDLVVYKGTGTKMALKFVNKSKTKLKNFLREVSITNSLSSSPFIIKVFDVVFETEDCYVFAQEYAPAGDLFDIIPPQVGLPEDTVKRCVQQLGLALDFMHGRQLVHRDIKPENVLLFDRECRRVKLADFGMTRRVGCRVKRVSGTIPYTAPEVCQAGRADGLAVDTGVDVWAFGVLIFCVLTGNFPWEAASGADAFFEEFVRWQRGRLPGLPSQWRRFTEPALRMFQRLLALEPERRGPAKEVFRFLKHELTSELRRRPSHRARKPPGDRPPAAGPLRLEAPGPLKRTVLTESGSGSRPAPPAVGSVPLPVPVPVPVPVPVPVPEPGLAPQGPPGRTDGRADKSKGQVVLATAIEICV

Take `Clc1cc(NCC2CC2)c2ncc(-c3ccc4[nH]ncc4c3)n2n1` [compound 2, 6-Chloro-N-(cyclopropylmethyl)-3-(1H-indazol-5-yl)imidazo[1,2-b]pyridazin-8-amine]: the remaining binding at 1 µM in assay [1] is 93%; at SBK1, 87%; on HIPK2 it was 62%; on ICK, 80%; at INSR it was 99%; on EGFR(L861Q) it was 82%. Moreover, the remaining binding at 1 µM at PKAC-beta stood at 86%; on PRKCQ, 94%; on CLK1, 4%; in assay [2] it was 68%; on NDR1 it was 75%; on PAK7, 98%. In addition, the remaining binding at 1 µM on IGF1R was determined as 100%; on NEK7 it was 97%; at STK35, 77%; at CDKL2, 83%; on CSNK1A1, 100%; at AKT3, 100%.

As to `O=C(CN1CCOCC1)N[C@H]1CC[C@H](Nc2cc(Cl)nn3c(-c4ccc5[nH]ncc5c4)cnc23)CC1` [compound 26], the remaining binding at 1 µM in assay [1] worked out at 48%; on SBK1, 89%; at HIPK2, 0.7%; at ICK, 74%; at INSR, 91%; on EGFR(L861Q), 100%. The remaining binding at 1 µM came to 99% on PKAC-beta; 85% on PRKCQ; 1.2% on CLK1; 26% in [2]; 96% on NDR1; 93% on PAK7. In addition, the remaining binding at 1 µM worked out at 100% on IGF1R; 99% on NEK7; 97% on STK35; 88% at CDKL2; 58% on CSNK1A1; 100% at AKT3.

Take `CN1CCC(CNc2cc(Cl)nn3c(-c4cc5nc(Nc6ccccc6)[nH]c5cc4F)cnc23)CC1` [compound 31, 6-Chloro-3-(6-fluoro-2-(phenylamino)-1H-benzo[d]imidazol-5-yl)-N-((1-methylpiperidin-4-yl)methyl)imidazo[1,2-b]pyridazin-8-amine]: the remaining binding at 1 µM in [1] worked out at 64%; at SBK1, 77%; on HIPK2, 85%; at ICK it was 97%; at INSR, 97%; at EGFR(L861Q), 100%. The remaining binding at 1 µM at PKAC-beta is 90%; on PRKCQ it was 100%; at CLK1 it was 16%; in assay [2], 76%; at NDR1, 86%; on PAK7, 95%. The remaining binding at 1 µM turned out to be 95% at IGF1R; 94% at NEK7; 100% at STK35; 81% on CDKL2; 97% at CSNK1A1; 90% at AKT3.
